Assay results from PubChem BioAssay AID180 (DTP/NCI, 2004).
Values joined by “and” are separate entries in the source; they are usually repeats but may differ in a detail not shown here. Equal values may be shown once.

Tested on: BDF1 mice, Adenocarcinoma 755 s.c., tumor weight T/C
Test: NCI In Vivo Anticancer Drug Screen. Data for tumor model Adenocarcinoma 755 (subcutaneous) in B6D2F1 (BDF1) mice
Conditions: endpoint: mean tumor weight, schedule: Q01DX011 (ip), higher = larger tumour
Method in brief: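 Transplantable tumor implanted; mice dosed with compound or vehicle; survival or tumor size recorded; ratio of treated to vehicle control reported.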

[1] = dose: 25.0 mg/kg/injection, vehicle: methylcellulose (MC)
[2] = dose: 50.0 mg/kg/injection, vehicle: methylcellulose (MC)
[3] = dose: 100.0 mg/kg/injection, vehicle: methylcellulose (MC)
[4] = dose: 60.0 mg/kg/injection, vehicle: carboxymethylcellulose (CMC)
[5] = dose: 120.0 mg/kg/injection, vehicle: carboxymethylcellulose (CMC)

CSc1ncc(C)c(Nc2ccc(Br)cc2)n1
T/C (dose: 15.0 mg/kg/injection, vehicle: methylcellulose (MC)): 111 % of control
T/C (dose: 31.0 mg/kg/injection, vehicle: methylcellulose (MC)): 109 % of control

c1cc(CSc2ncnc3nc[nH]c23)ccn1
T/C (dose: 3.1 mg/kg/injection, vehicle: methylcellulose (MC)): 72 % of control
T/C (dose: 6.25 mg/kg/injection, vehicle: methylcellulose (MC)): 39 % of control
T/C (dose: 12.5 mg/kg/injection, vehicle: methylcellulose (MC)): 29 % of control
T/C [1]: 16 % of control and 25 % of control
T/C [2]: 12 % of control
T/C [3]: 7 % of control
T/C (dose: 200.0 mg/kg/injection, vehicle: methylcellulose (MC)): 2 % of control

CC1CN1P(=O)(N1CCCC1)N1CC1C (stereo not drawn)
T/C (dose: 6.3 mg/kg/injection, vehicle: saline): 73 % of control
T/C (dose: 12.5 mg/kg/injection, vehicle: saline): 58 % of control
T/C (dose: 25.0 mg/kg/injection, vehicle: saline): 19 % of control and 20 % of control
T/C (dose: 50.0 mg/kg/injection, vehicle: saline): 2 % of control and 3 % of control

CSc1nc(N)nc2c1n(C)c[n+]2C
T/C (dose: 30.0 mg/kg/injection, vehicle: carboxymethylcellulose (CMC)): 97 % of control
T/C [4]: 99 % of control
T/C [5]: 66 % of control
T/C (dose: 240.0 mg/kg/injection, vehicle: carboxymethylcellulose (CMC)): 89 % of control

Clc1ccccc1CSc1ncnc2nc[nH]c12
T/C (dose: 5.0 mg/kg/injection, vehicle: other): 11 % of control
T/C (dose: 10.0 mg/kg/injection, vehicle: other): 2 % of control
T/C (dose: 31.0 mg/kg/injection, vehicle: other): 12 % of control
T/C (dose: 62.0 mg/kg/injection, vehicle: other): 3 % of control
T/C (dose: 125.0 mg/kg/injection, vehicle: other): 3 % of control

CC(C)C(Nc1ncnc2nc[nH]c12)C(=O)O (stereo not drawn)
T/C (dose: 12.0 mg/kg/injection, vehicle: methylcellulose (MC)): 180 % of control
T/C [1]: 230 % of control
T/C [2]: 239 % of control
T/C [3]: 192 % of control

Cn1c(=O)c2c(nc(CN3CCOCC3)n2C)n(C)c1=O
T/C (dose: 30.0 mg/kg/injection, vehicle: methylcellulose (MC)): 122 % of control
T/C (dose: 60.0 mg/kg/injection, vehicle: methylcellulose (MC)): 81 % of control
T/C (dose: 120.0 mg/kg/injection, vehicle: methylcellulose (MC)): 80 % of control
T/C (dose: 240.0 mg/kg/injection, vehicle: methylcellulose (MC)): 92 % of control

CC(=O)N(C)c1ccccc1
T/C (dose: 12.5 mg/kg/injection, vehicle: other): 69 % of control
T/C (dose: 25.0 mg/kg/injection, vehicle: other): 88 % of control
T/C (dose: 50.0 mg/kg/injection, vehicle: other): 73 % of control
T/C (dose: 100.0 mg/kg/injection, vehicle: other): 95 % of control

CCCCCCCCCCCCCCCCCCN(C)C
T/C (dose: 12.0 mg/kg/injection, vehicle: distilled water + alcohol): 61 % of control
T/C (dose: 18.0 mg/kg/injection, vehicle: distilled water + alcohol): 43 % of control
T/C (dose: 27.0 mg/kg/injection, vehicle: distilled water + alcohol): 51 % of control
T/C (dose: 40.0 mg/kg/injection, vehicle: distilled water + alcohol): 36 % of control

COc1ccc2c3c([nH]c2c1)[C@H]1C[C@H]2[C@H](C[C@@H](O)[C@H](OC)[C@H]2CO)CN1CC3
T/C (dose: 0.5 mg/kg/injection, vehicle: saline): 91 % of control
T/C (dose: 1.0 mg/kg/injection, vehicle: saline): 95 % of control
T/C (dose: 2.0 mg/kg/injection, vehicle: saline): 92 % of control

CS(=O)(=O)OCCC(=O)NCCCCCCNC(=O)CCOS(C)(=O)=O
T/C (dose: 57.0 mg/kg/injection, vehicle: methylcellulose (MC)): 117 % of control
T/C (dose: 113.0 mg/kg/injection, vehicle: methylcellulose (MC)): 110 % of control
T/C (dose: 225.0 mg/kg/injection, vehicle: methylcellulose (MC)): 45 % of control

CCOC(=O)C(Cc1ccc(N(CCCl)CCCl)cc1)NC=O (stereo not drawn)
T/C (dose: 5.0 mg/kg/injection, vehicle: carboxymethylcellulose (CMC)): 75 % of control
T/C (dose: 10.0 mg/kg/injection, vehicle: carboxymethylcellulose (CMC)): 43 % of control
T/C (dose: 20.0 mg/kg/injection, vehicle: carboxymethylcellulose (CMC)): 48 % of control
T/C (dose: 40.0 mg/kg/injection, vehicle: carboxymethylcellulose (CMC)): 3 % of control
T/C (dose: 80.0 mg/kg/injection, vehicle: carboxymethylcellulose (CMC)): 6 % of control

Nc1nc(C(F)(F)F)c2ncn(Cc3ccccc3)c2n1
T/C [4]: 92 % of control
T/C [5]: 123 % of control

CC1=CCN2CCC(O)C12 (stereo not drawn)
T/C (dose: 38.0 mg/kg/injection, vehicle: carboxymethylcellulose (CMC)): 95 % of control
T/C (dose: 150.0 mg/kg/injection, vehicle: carboxymethylcellulose (CMC)): 75 % of control
